Laboratory results: ChEMBL document CHEMBL5728971, “Small molecule inhibitors of lactate dehydrogenase and methods of use thereof” (2022)

Test: Biochemical Assay: Test compounds were placed in a Greiner Bio-One (Monroe, N.C.) 1536-well black solid bottom assay plate. 200 millimolar (mM) Tris HCl, pH 7.4, 100 micromolar (μM) EDTA and 0.01% TWEEN-20™, final concentration, was used as the assay buffer. The LDHA reagent was 2 nanomolar (nM) Human LDHA (Meridian Life Science, Inc., Memphis, Tenn.), final concentration, in assay buffer.

IC50 | Compound
> 57000 nM | CCOC(=O)c1csc(-n2nc(-c3ccc(F)c(-c4cccc(OC)c4)c3)c(Cc3ccc(S(N)(=O)=O)cc3F)c2CC2CC2)n1
in the range around 29000 nM | Cc1ccc(-c2cc(-c3c(Cc4ccc(S(N)(=O)=O)cc4)c(CC4CC4)nn3-c3nc(C(=O)O)cs3)ccc2F)cc1
in the range around 29000 nM | NS(=O)(=O)c1ccc(Cc2c(C3CC3)nn(-c3nc(C(=O)O)cs3)c2-c2cccc(-c3ccc(F)cc3)c2)c(F)c1
in the range around 29000 nM | COc1cccc(-c2cccc(-c3c(Cc4ccc(S(N)(=O)=O)cc4F)c(C4CC4)nn3-c3nc(C(=O)O)cs3)c2)c1
in the range around 29000 nM | COc1cccc(-c2cccc(-c3c(Cc4ccc(S(N)(=O)=O)c(F)c4)c(C4CC4)nn3-c3nc(C(=O)O)cs3)c2)c1
< 100 nM | NS(=O)(=O)c1ccc(Cc2c(-c3ccc(F)c(C#CC4(O)CCCC4)c3)nn(-c3nc(C(=O)O)cs3)c2CC2CC2)cc1F
< 100 nM | CC#Cc1cccc(-c2nn(-c3nc(C(=O)O)cs3)c(CC3CC3)c2Cc2ccc(S(N)(=O)=O)c(F)c2)c1
> 57000 nM | CCOC(=O)c1csc(-n2nc(-c3cccc(-c4ccccc4)c3)c(Cc3ccc(S(N)(=O)=O)c(F)c3)c2CC2CC2)n1
in the range around 29000 nM | Cc1ccc(-c2cccc(-c3c(Cc4ccc(S(N)(=O)=O)c(F)c4)c(CC4CC4)nn3-c3nc(C(=O)O)cs3)c2)cc1
< 100 nM | CC1(C#Cc2cc(-c3nn(-c4nc(C(=O)O)cs4)c(CC4CC4)c3Cc3ccc(S(N)(=O)=O)c(F)c3)ccc2F)COC1
< 100 nM | NS(=O)(=O)c1ccc(Cc2c(-c3ccc(F)c(C#CC4CCC4)c3)nn(-c3nc(C(=O)O)cs3)c2CC2CC2)cc1F
> 57000 nM | CCOC(=O)c1csc(-n2nc(CC3CC3)c(Cc3ccc(S(N)(=O)=O)cc3F)c2-c2ccc(F)c(-c3cccc(OC)c3)c2)n1
< 100 nM | NS(=O)(=O)c1ccc(Cc2c(-c3ccc(F)c(C#Cc4cccs4)c3)nn(-c3nc(C(=O)O)cs3)c2CC2CC2)cc1F
< 100 nM | CC(C)(O)C#Cc1cc(-c2nn(-c3nc(C(=O)O)cs3)c(CC3CC3)c2Cc2ccc(S(N)(=O)=O)c(F)c2)ccc1F
< 100 nM | NS(=O)(=O)c1ccc(Cc2cn(-c3nc(C(=O)O)cs3)nc2-c2ccc(F)c(F)c2)cc1
> 57000 nM | NS(=O)(=O)c1ccc(NCc2cn(-c3nc(C(=O)O)cs3)nc2-c2ccccc2)cc1
< 100 nM | N#CC#Cc1cc(-c2nn(-c3nc(C(=O)O)cs3)c(CC3CC3)c2Cc2ccc(S(N)(=O)=O)c(F)c2)ccc1F
< 100 nM | Cc1csc(-c2cc(-c3nn(-c4nc(C(=O)O)cs4)c(CC4CC4)c3Cc3ccc(S(N)(=O)=O)c(F)c3)ccc2F)c1
in the range around 29000 nM | Cc1ccc(-c2cccc(-c3c(Cc4ccc(S(N)(=O)=O)c(F)c4)c(C4CC4)nn3-c3nc(C(=O)O)cs3)c2)cc1
< 100 nM | Cc1ccc(-c2cc(-c3nn(-c4nc(C(=O)O)cs4)c(C(F)(F)F)c3Cc3ccc(S(N)(=O)=O)cc3)ccc2F)cc1
< 100 nM | NS(=O)(=O)c1ccc(Cc2cn(-c3nc(C(=O)O)cs3)nc2-c2ccccc2)cc1
< 100 nM | NS(=O)(=O)c1ccc(Cc2c(-c3ccc(F)c(C4=CCN(C(=O)C5CC5)CC4)c3)nn(-c3nc(C(=O)O)cs3)c2CC2CC2)cc1F
< 100 nM | NS(=O)(=O)c1ccc(Cc2c(-c3ccc(F)c(C#CC4(F)CCCC4)c3)nn(-c3nc(C(=O)O)cs3)c2CC2CC2)cc1F

IC50 | Compound
< 100 nM | Cc1ccc(-c2cccc(-c3nn(-c4nc(C(=O)O)cs4)c(C4CC4)c3Cc3ccc(S(N)(=O)=O)c(F)c3)c2)cc1
> 57000 nM | Cc1noc(C)c1-c1cc(-c2c(Cc3ccc(S(N)(=O)=O)cc3F)c(CC3CC3)nn2-c2nc(C(=O)O)cs2)ccc1F
< 100 nM | Cc1ccc(-c2cc(-c3nn(-c4nc(C(=O)O)cs4)c(CC4CC4)c3Cc3ccc(S(N)(=O)=O)cc3)ccc2F)cc1
in the range around 550 nM | NS(=O)(=O)c1cccc(Cc2c(-c3ccc(F)c(C#CC4CCCC4)c3)nn(-c3nc(C(=O)O)cs3)c2CC2CC2)c1
< 100 nM | COc1cccc(-c2cc(-c3nn(-c4nc(C(=O)O)cs4)c(CC4CC4)c3Cc3ccc(S(N)(=O)=O)cc3F)ccc2F)c1
< 100 nM | NS(=O)(=O)c1ccc(Cc2c(-c3ccc(F)c(-c4ccc(C5CC5)cc4)c3)nn(-c3nc(C(=O)O)cs3)c2CC2CC2)cc1
> 57000 nM | Cc1noc(C)c1-c1cc(-c2c(Cc3ccc(S(N)(=O)=O)c(F)c3)c(CC3CC3)nn2-c2nc(C(=O)O)cs2)ccc1F
< 100 nM | NS(=O)(=O)c1ccc(Cc2c(-c3ccc(F)c(-c4ccc(F)cc4)c3)nn(-c3nc(C(=O)O)cs3)c2C2CC2)c(F)c1
< 100 nM | C=C(C)C#Cc1cc(-c2nn(-c3nc(C(=O)O)cs3)c(CC3CC3)c2Cc2ccc(S(N)(=O)=O)c(F)c2)ccc1F
in the range around 29000 nM | NS(=O)(=O)c1ccc(Cc2c(Cc3ccccc3)nn(-c3nc(C(=O)O)cs3)c2-c2ccccc2)cc1
< 100 nM | C=C(c1cc(-c2nn(-c3nc(C(=O)O)cs3)c(CC3CC3)c2Cc2ccc(S(N)(=O)=O)c(F)c2)ccc1F)C(F)(F)F
< 100 nM | COc1cccc(-c2cc(-c3nn(-c4nc(C(=O)O)cs4)c(C4CC4)c3Cc3ccc(S(N)(=O)=O)cc3F)ccc2F)c1
> 57000 nM | O=C(O)c1ccc(Cc2c(-c3cccc(-c4ccccc4)c3)nn(-c3nc(C(=O)O)cs3)c2O)cc1
< 100 nM | C#Cc1cc(-c2nn(-c3nc(C(=O)O)cs3)c(CC3CC3)c2Cc2ccc(S(N)(=O)=O)c(F)c2)ccc1F
< 100 nM | NS(=O)(=O)c1ccc(Cc2c(-c3cccc(-c4ccc(F)cc4)c3)nn(-c3nc(C(=O)O)cs3)c2C2CC2)c(F)c1
> 57000 nM | CCOC(=O)c1csc(-n2nc(-c3ccc(F)c(-c4cccc(F)c4)c3)c(Cc3ccc(S(N)(=O)=O)c(F)c3)c2CC2CC2)n1
in the range around 29000 nM | NS(=O)(=O)c1ccc(Cc2c(CC3CC3)nn(-c3nc(C(=O)O)cs3)c2-c2cccc(-c3ccccc3)c2)cc1F
in the range around 29000 nM | CCOC(=O)c1csc(-n2nc(-c3ccc(F)c(-c4cccc(F)c4)c3)c(Cc3ccc(S(N)(=O)=O)cc3F)c2CC2CC2)n1
< 100 nM | NS(=O)(=O)c1ccc(Cc2c(-c3ccc(F)c(-c4ccccc4F)c3)nn(-c3nc(C(=O)O)cs3)c2CC2CC2)cc1F
< 100 nM | NS(=O)(=O)c1ccc(Cc2c(-c3ccc(F)c(-c4ccc(F)cc4)c3)nn(-c3nc(C(=O)O)cs3)c2C2CC2)cc1F
in the range around 29000 nM | NS(=O)(=O)c1ccc(Cc2c(CC3CC3)nn(-c3nc(C(=O)O)cs3)c2-c2ccc(F)c(Br)c2)cc1
in the range around 29000 nM | Cc1ccc(-c2cc(-c3c(Cc4ccc(S(N)(=O)=O)c(F)c4)c(CC4CC4)nn3-c3nc(C(=O)O)cs3)ccc2F)cc1
< 100 nM | NS(=O)(=O)c1ccc(Cc2c(-c3ccc(F)c(C#CCC4CC4)c3)nn(-c3nc(C(=O)O)cs3)c2CC2CC2)cc1F

IC50 | Compound
in the range around 29000 nM | NS(=O)(=O)c1ccc(Cc2c(CC3CC3)nn(-c3nc(C(=O)O)cs3)c2-c2cccc(OCc3ccccc3)c2)cc1
< 100 nM | NS(=O)(=O)c1ccc(Cc2c(-c3ccc(F)c(C#CC4CCOC4)c3)nn(-c3nc(C(=O)O)cs3)c2CC2CC2)cc1F (centres undefined)
< 100 nM | NS(=O)(=O)c1ccc(Cc2c(-c3cccc(C#CC4CCCC4)c3)nn(-c3nc(C(=O)O)cs3)c2CC2CC2)cc1F
< 100 nM | NS(=O)(=O)c1ccc(Oc2cn(-c3nc(C(=O)O)cs3)nc2-c2ccccc2)cc1
< 100 nM | NS(=O)(=O)c1ccc(Cc2c(-c3cccc(N4CCOCC4)c3)nn(-c3ncc(C(=O)O)s3)c2CC2CC2)cc1F
> 57000 nM | CCOC(=O)c1csc(-n2nc(-c3cccc(-c4ccccc4)c3)c(Cc3ccc(S(N)(=O)=O)cc3F)c2C2CC2)n1
< 100 nM | NS(=O)(=O)c1ccc(Cc2c(-c3cccc(-c4ccc(F)cc4)c3)nn(-c3nc(C(=O)O)cs3)c2C(F)(F)F)cc1
< 100 nM | NS(=O)(=O)c1ccc(Cc2c(-c3ccc(F)c(C4CCCCC4)c3)nn(-c3nc(C(=O)O)cs3)c2CC2CC2)cc1F
in the range around 550 nM | NS(=O)(=O)c1ccc(Cc2c(-c3ccc(F)c(C4C5CC6CC(C5)CC4C6)c3)nn(-c3nc(C(=O)O)cs3)c2CC2CC2)cc1F (centres undefined)
< 100 nM | NS(=O)(=O)c1ccc(Cc2c(-c3ccc(F)c(C4CC4)c3)nn(-c3nc(C(=O)O)cs3)c2CC2CC2)cc1Cl
in the range around 550 nM | NS(=O)(=O)c1ccc(Cc2c(-c3cccc(-c4ccccc4)c3)nn(-c3nc(C(=O)O)cs3)c2C2(C(F)(F)F)CC2)c(F)c1
in the range around 29000 nM | NS(=O)(=O)c1ccc(Cc2c(C3(C(F)(F)F)CC3)nn(-c3nc(C(=O)O)cs3)c2-c2cccc(-c3ccccc3)c2)cc1F
< 100 nM | Cc1ccc(C#Cc2cc(-c3nn(-c4nc(C(=O)O)cs4)c(CC4CC4)c3Cc3ccc(S(N)(=O)=O)c(F)c3)ccc2F)s1
< 100 nM | NS(=O)(=O)c1ccc(Cc2c(-c3cccc(N4CCCC(C(F)(F)F)C4)c3)nn(-c3nc(C(=O)O)cs3)c2CC2CC2)cc1F (centres undefined)
> 57000 nM | Cc1csc(-c2cc(-c3c(Cc4ccc(S(N)(=O)=O)c(F)c4)c(CC4CC4)nn3-c3nc(C(=O)O)cs3)ccc2F)c1
in the range around 550 nM | NS(=O)(=O)c1ccc(Cc2c(-c3ccc(F)c(C#CC(F)(F)F)c3)nn(-c3nc(C(=O)O)cs3)c2CC2CC2)cc1F
> 57000 nM | Cc1oc(=O)oc1COC(=O)c1csc(-n2nc(-c3ccc(F)c(C#CC4CCCC4)c3)c(Cc3ccc(S(N)(=O)=O)c(F)c3)c2CC2CC2)n1
< 100 nM | CC#Cc1cc(-c2nn(-c3nc(C(=O)O)cs3)c(CC3CC3)c2Cc2ccc(S(N)(=O)=O)c(F)c2)ccc1F
< 100 nM | NS(=O)(=O)c1ccc(Cc2c(-c3ccc(F)c(C#CCCO)c3)nn(-c3nc(C(=O)O)cs3)c2CC2CC2)cc1F
in the range around 29000 nM | COc1cccc(-c2cc(-c3c(Cc4ccc(S(N)(=O)=O)c(F)c4)c(CC4CC4)nn3-c3nc(C(=O)O)cs3)ccc2F)c1
< 100 nM | CC(F)C#Cc1cc(-c2nn(-c3nc(C(=O)O)cs3)c(CC3CC3)c2Cc2ccc(S(N)(=O)=O)c(F)c2)ccc1F (centres undefined)
in the range around 29000 nM | CCOC(=O)c1csc(-n2nc(-c3cccc(OC4CCCC4)c3)c(Cc3ccc(S(N)(=O)=O)cc3F)c2CC2CC2)n1
< 100 nM | Cc1c(Cc2ccc(S(N)(=O)=O)cc2)c(-c2ccccc2)nn1-c1nc(C(=O)O)cs1
